# Test results: patent publication US8822503B2, “2-pyridone compounds” (Taisho Pharmaceutical Co., Ltd, priority 2009, dated 2014)
# Target: T1, human liver GK (Homo sapiens, UniProt P35557)
# T1 construct: GST (glutathione S-transferase) (N); made in house; host or cells: E. coli
# T1 sequence (P35557 1-466 isoform P35557-2): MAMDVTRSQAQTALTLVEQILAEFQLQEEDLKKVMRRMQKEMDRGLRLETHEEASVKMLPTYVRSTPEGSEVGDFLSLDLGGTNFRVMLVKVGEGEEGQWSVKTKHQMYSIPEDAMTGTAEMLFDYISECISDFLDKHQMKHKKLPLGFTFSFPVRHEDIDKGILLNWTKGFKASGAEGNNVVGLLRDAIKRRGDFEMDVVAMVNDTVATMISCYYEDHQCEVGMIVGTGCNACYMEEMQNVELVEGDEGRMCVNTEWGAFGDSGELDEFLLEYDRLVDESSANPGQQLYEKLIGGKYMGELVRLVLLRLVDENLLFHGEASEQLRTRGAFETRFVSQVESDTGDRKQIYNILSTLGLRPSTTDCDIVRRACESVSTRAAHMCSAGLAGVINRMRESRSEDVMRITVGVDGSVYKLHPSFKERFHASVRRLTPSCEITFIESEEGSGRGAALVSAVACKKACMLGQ
# Experiment: GK activation test
# Assay type: biochemical
# Settings: test compound concentration needed to activate 50% of maximum activation ability; 4 mM 14C-labeled glucose, 2 mM ATP, room temperature, 20 minutes
# Protocol: The GK activation test for the test compounds was performed by the method of Irwin A. Rose et al. (J. Biol. Chem. 1964 January; 239:12-7) with partial modifications.
# The enzyme source used in this assay, human liver GK, was expressed in E. coli as a fusion protein with GST (glutathione S-transferase) added to the amino terminus and was purified using Glutathione Sepharose 4B (Amersham Biosciences).
# The test was carried out using flat-bottom 96-well plates (Sumitomo Bakelite Co., Ltd.). A solution of the test compound in dimethyl sulfoxide (DMSO) and DMSO as a control were added to each well of the plates at a final DMSO concentration of 1%. 25 mM Hepes-KOH (pH=7.1), 25 mM KCl, 2 mM MgCl2, 2 mM ATP, 4 mM ^14C-labeled glucose (Muromachi Yakuhin) and 1 mM DTT (dithiothreitol) were further added at the indicated final concentrations, respectively. Finally, human liver GK was added at 0.24 microgram per well and the reaction was started. The reaction was carried out at room temperature.
# After 20 minutes, AG1-X4 resin (BioRad) suspended in 25 mM Hepes-KOH (pH=7.1) was added and the reaction product, labeled glucose 6-phosphate, was allowed to bind thereto. The whole volume was transferred to MultiScreen plates (Millipore) and the resin was washed with water. Thereafter, the labeled glucose 6-phosphate binding to the resin was eluted with a 0.5 M NaCl solution. The labeling activity of the eluted labeled glucose 6-phosphate was measured as an index of GK activity.
# The GK activity maximally activated by the test compound was described as maximum activation ability, and the test compound concentration needed to activate 50% of that ability was described as EC50.
row,Structure (SMILES),EC50 [µM]
1,"O=C1CC[C@H](CC(c2ccc(C(F)(F)F)cc2)c2ccc(C3CC3)c(=O)[nH]2)N1 (single isomer, unassigned) [Example 4-248]",0.5 to 3
2,"O=C1CC[C@H](CC(c2ccc(C(F)(F)F)cc2)c2ccc(C3CC3)c(=O)[nH]2)N1 (single isomer, unassigned) [Example 4-249]",3 to 10
3,"O=C1CC[C@H](CC(c2ccc(O)c(Cl)c2)c2ccc(C3CC3)c(=O)[nH]2)N1 (single isomer, unassigned) [Example 4-250]",0.5 to 3
4,"O=C1CC[C@H](CC(c2ccc(O)c(Cl)c2)c2ccc(C3CC3)c(=O)[nH]2)N1 (single isomer, unassigned) [Example 4-251]",3 to 10
5,"O=C1CC[C@H](CC(c2ccc(Cl)cc2)c2ccc(C3CC3)c(=O)[nH]2)N1 (single isomer, unassigned) [Example 4-252]",0.5 to 3
6,"O=C1CC[C@H](CC(c2ccc(C(F)(F)F)c(Cl)c2)c2ccc(C3CC3)c(=O)[nH]2)N1 (single isomer, unassigned) [Example 4-254]",0.01 to 0.5
7,"O=C1CC[C@H](CC(c2ccc(C(F)(F)F)c(Cl)c2)c2ccc(C3CC3)c(=O)[nH]2)N1 (single isomer, unassigned) [Example 4-255]",3 to 10
8,"Cc1ccc(C(C[C@H]2CCC(=O)N2)c2ccc(C3CC3)c(=O)[nH]2)cc1 (single isomer, unassigned) [Example 4-294]",0.5 to 3
9,"CC(C)Oc1ccc(C(C[C@H]2CCC(=O)N2)c2ccc(Cl)c(=O)[nH]2)cc1Cl (single isomer, unassigned) [Example 4-296]",0.5 to 3
10,"CC(C)Oc1ccc(C(C[C@H]2CCC(=O)N2)c2ccc(Cl)c(=O)[nH]2)cc1Cl (single isomer, unassigned) [Example 4-297]",3 to 10
11,"Cc1cc(C(C[C@H]2CCC(=O)N2)c2ccc(C3CC3)c(=O)[nH]2)ccc1S(=O)(=O)C1CC1 (single isomer, unassigned) [Example 4-298]",0.01 to 0.5
12,"Cc1cc(C(C[C@H]2CCC(=O)N2)c2ccc(C3CC3)c(=O)[nH]2)ccc1S(=O)(=O)C1CC1 (single isomer, unassigned) [Example 4-299]",3 to 10
13,"CCc1ccc(C(C[C@H]2CCC(=O)N2)c2ccc(C3CC3)c(=O)[nH]2)cc1 (single isomer, unassigned) [Example 4-302]",0.01 to 0.5
14,"CCc1ccc(C(C[C@H]2CCC(=O)N2)c2ccc(C3CC3)c(=O)[nH]2)cc1 (single isomer, unassigned) [Example 4-303]",3 to 10
15,"O=C1CC[C@H](CC(c2ccc(S(=O)(=O)C3CC3)c(Cl)c2)c2ccc(Cl)c(=O)[nH]2)N1 (single isomer, unassigned) [Example 4-304]",0.01 to 0.5
16,"O=C1CC[C@H](CC(c2ccc(S(=O)(=O)C3CC3)c(Cl)c2)c2ccc(Cl)c(=O)[nH]2)N1 (single isomer, unassigned) [Example 4-305]",3 to 10
17,"O=C1CC[C@H](CC(c2ccc(S(=O)(=O)C3CC3)cc2)c2ccc(C3CC3)c(=O)[nH]2)N1 (single isomer, unassigned) [Example 4-306]",0.01 to 0.5
18,"O=C1CC[C@H](CC(c2ccc(S(=O)(=O)C3CC3)cc2)c2ccc(C3CC3)c(=O)[nH]2)N1 (single isomer, unassigned) [Example 4-307]",3 to 10
19,"CCc1ccc(C(C[C@H]2CCC(=O)N2)c2ccc(Cl)c(=O)[nH]2)cc1 (single isomer, unassigned) [Example 4-308]",0.5 to 3
20,"CCc1ccc(C(C[C@H]2CCC(=O)N2)c2ccc(Cl)c(=O)[nH]2)cc1 (single isomer, unassigned) [Example 4-309]",3 to 10
21,"Cc1ccc(C(C[C@H]2CCC(=O)N2)c2ccc(Cl)c(=O)[nH]2)cc1Cl (single isomer, unassigned) [Example 4-310]",0.5 to 3
22,"Cc1ccc(C(C[C@H]2CCC(=O)N2)c2ccc(Cl)c(=O)[nH]2)cc1Cl (single isomer, unassigned) [Example 4-311]",3 to 10
23,"CCCc1ccc(C(C[C@H]2CCC(=O)N2)c2ccc(Cl)c(=O)[nH]2)cc1 (single isomer, unassigned) [Example 4-312]",0.5 to 3

row,Structure (SMILES),EC50 [µM]
1,"CC(C)(C)c1ccc(C(C[C@H]2CCC(=O)N2)c2ccc(C(F)(F)F)c(=O)[nH]2)cc1 (single isomer, unassigned) [Example 4-314]",0.5 to 3
2,"CC(C)(C)c1ccc(C(C[C@H]2CCC(=O)N2)c2ccc(C(F)(F)F)c(=O)[nH]2)cc1 (single isomer, unassigned) [Example 4-315]",3 to 10
3,"O=C1CC[C@H](CC(c2ccc(C3CC3)cc2)c2ccc(Cl)c(=O)[nH]2)N1 (single isomer, unassigned) [Example 4-316]",3 to 10
4,"O=C1CC[C@H](CC(c2ccc(C3CC3)cc2)c2ccc(Cl)c(=O)[nH]2)N1 (single isomer, unassigned) [Example 4-317]",0.5 to 3
5,"Cc1ccc(C(C[C@H]2CCC(=O)N2)c2ccc(Cl)c(=O)[nH]2)cc1 (single isomer, unassigned) [Example 4-318]",3 to 10
6,"CC(C)c1ccc(C(C[C@H]2CCC(=O)N2)c2ccc(C3CC3)c(=O)[nH]2)cc1Cl (single isomer, unassigned) [Example 4-320]",0.01 to 0.5
7,"CC(C)c1ccc(C(C[C@H]2CCC(=O)N2)c2ccc(C3CC3)c(=O)[nH]2)cc1Cl (single isomer, unassigned) [Example 4-321]",0.5 to 3
8,"CC(C)Oc1ccc(C(C[C@H]2CCC(=O)N2)c2ccc(C3CC3)c(=O)[nH]2)cc1Cl (single isomer, unassigned) [Example 4-322]",0.01 to 0.5
9,"CC(C)Oc1ccc(C(C[C@H]2CCC(=O)N2)c2ccc(C3CC3)c(=O)[nH]2)cc1Cl (single isomer, unassigned) [Example 4-323]",3 to 10
10,"CCc1ccc(C(C[C@H]2CCC(=O)N2)c2ccc(Cl)c(=O)[nH]2)cc1Cl (single isomer, unassigned) [Example 4-324]",0.5 to 3
11,"CCc1ccc(C(C[C@H]2CCC(=O)N2)c2ccc(Cl)c(=O)[nH]2)cc1Cl (single isomer, unassigned) [Example 4-325]",3 to 10
12,"COc1ccc(C(C[C@H]2CCC(=O)N2)c2ccc(C3CC3)c(=O)[nH]2)cc1Cl (single isomer, unassigned) [Example 4-326]",0.01 to 0.5
13,"COc1ccc(C(C[C@H]2CCC(=O)N2)c2ccc(C3CC3)c(=O)[nH]2)cc1Cl (single isomer, unassigned) [Example 4-327]",3 to 10
14,"CCOc1ccc(C(C[C@H]2CCC(=O)N2)c2ccc(C3CC3)c(=O)[nH]2)cc1 (single isomer, unassigned) [Example 4-328]",0.5 to 3
15,"Cc1cc(C(C[C@H]2CCC(=O)N2)c2ccc(C3CC3)c(=O)[nH]2)ccc1C(F)(F)F (single isomer, unassigned) [Example 4-330]",0.5 to 3
16,"Cc1cc(C(C[C@H]2CCC(=O)N2)c2ccc(C3CC3)c(=O)[nH]2)ccc1C(F)(F)F (single isomer, unassigned) [Example 4-331]",3 to 10
17,"O=C1CC[C@H](CC(c2ccc(C3CC3)c(=O)[nH]2)c2ccc(C(F)(F)F)cc2F)N1 (single isomer, unassigned) [Example 4-332]",0.5 to 3
18,"O=C1CC[C@H](CC(c2ccc(C3CC3)c(=O)[nH]2)c2ccc(C(F)(F)F)cc2F)N1 (single isomer, unassigned) [Example 4-333]",3 to 10
19,"O=C1CC[C@H](CC(c2ccc(C3CC3)c(=O)[nH]2)c2ccc(Cl)cc2F)N1 (single isomer, unassigned) [Example 4-334]",0.5 to 3
20,"O=C1CC[C@H](CC(c2ccc(C3CC3)c(=O)[nH]2)c2ccc(Cl)cc2F)N1 (single isomer, unassigned) [Example 4-335]",3 to 10
21,"CCc1ccc(C(C[C@H]2CCC(=O)N2)c2ccc(C3CC3)c(=O)[nH]2)cc1Cl (single isomer, unassigned) [Example 4-336]",0.01 to 0.5
22,"CCc1ccc(C(C[C@H]2CCC(=O)N2)c2ccc(C3CC3)c(=O)[nH]2)cc1Cl (single isomer, unassigned) [Example 4-337]",0.5 to 3
23,"COCCCc1ccc(C(C[C@H]2CCC(=O)N2)c2ccc(Cl)c(=O)[nH]2)cc1 (single isomer, unassigned) [Example 4-338]",0.5 to 3
